Laboratory results as given in US20100029552A1, “Peptide inhibitors of c-jun dimerization and uses thereof” (Phylogica Limited, priority 2004, published 2010).
Entries after “also recorded” stand apart in the source; their conditions may differ. Where no end group is shown, it is not given here. [ ]: non-standard residue; d: D form.

Tests used:
[1] = system: Primary rat neuronal cells; test: Glutamate induced cell death of primary neurons, D and L amino acid synthetic peptides; format: cell-based; conditions: FIG. 21; for protection of neurons from glutamate induced cell death: 250 μM glutamate for 5 minutes; for protection offered by the D form relative to the L form of the peptide: same concentrations, glutamate induced cell death
From the text: D amino acid forms of peptides SP35 (designated D35) (SEQ ID NO: 132) and SP36 (designated D36) (SEQ ID NO: 136) comprising D amino acids other than glycine were produced synthetically, as were peptides SP35, SP36 and TIJIP comprising L-amino acids. The retro-inverted peptides further comprised a TAT protein targeting domain fused to the C-terminus of the inverted peptide moiety and separated therefrom by a single L-glycine residue in each case. The amino acid sequences of the retro-inverted peptide analogues of SEQ ID NOs: 132 and 136 are set forth in SEQ ID NOs: 181 and 182, respectively.
Primary rat neuronal cells were isolated and cultured using methods known in the art. Cells were then incubated in the presence or absence of a test peptide, a positive control peptide (Ti JIP) or a combination of known small-molecule glutamate inhibitors (MK801 and CNQX). Cells were incubated in the presence of 250 μM glutamate for 5 minutes to induce cell death representative of ischemia induced cell death.

[2] = system: Primary rat neuronal cells; test: Acute ischemia: anaerobic incubation of primary neurons (MTS assay); format: cell-based; conditions: anaerobic incubator for 35 minutes, peptide 15 mins pre-insult, MTS 24 hours later; FIG. 22
Procedure: Cells at the core of an ischemic event (e.g., a stroke) are subject to anaerobic conditions leading to severe energy depletion and glutamate release, which causes necrotic cell death. Such a condition is mimicked by incubating cell cultures in anaerobic conditions.
To determine the effect of peptides 35 (SEQ ID NO: 130) and 36 (SEQ ID NO: 134) comprising either D- or L-amino acids on an acute ischemic effect, primary rat neuronal cells were isolated and cultured. Synthetic peptides were added to cultures and the cells maintained in an anaerobic chamber for approximately 35 minutes. Cell survival was then measured.
Briefly, isolated rat neurons were treated with peptide for 15 mins pre-insult. After addition of peptide or control, Cells were washed in glucose free balanced salt solution containing deoxy glucose to prevent glycolysis. Cells were then incubated in anaerobic incubator for 35 minutes. Post insult, solution was removed, fresh media added to cells and MTS assayed for live cells 24 hours later.

AP-I luciferase reporter = test: AP-1 luciferase reporter assay in K562-AP1 cells transfected with pcDNA3-peptide; format: cell-based; conditions: 48 hours after transfection, compared to control cells, p<0.05, FIG. 15
Procedure: The K562 cell line was stably-transfected with the AP-I luciferase reporter of the Mercury Profiling kit (Clontech, U.S.A.), and clonal cell line 26 established. In 6-well tissue culture plate format, K562-AP1 cells were transfected with either pcDNA3 control, pcDNA3-Jun or pcDNA3-peptide using Lipofectamine-2000 (Life Technologies), according to manufacturer's instructions. Transfections were incubated for 48 hours, cells collected and protein lysates extracted for luciferase assay according to Mercury Profiling kit and associated protocols. Luciferase assays were performed in independent triplicates, and results for each peptide subjected to statistical analysis (SPSS software package) to determine if they were different to Jun (positive control for AP-1 activation) or pcDNA-3 (negative control for AP-I activation).

SIRC cells = test: UV B induced cell death, FACS for propidium iodide and Annexin V; format: cell-based; conditions: 10 minutes UV B, media containing 10 micromolar peptide, FIG. 18c
Procedure: Cells were exposed to UV B radiation and the level of cell death determined. Briefly, corneal keratinocytes in culture were exposed to IOmins UV irradiation. Post-exposure, media was replaced with either normal media or media containing 10 micromolar peptide. Subsequently, cells were prepared for FACS analysis. FACS analysis was used to detect propidium iodide and the level of Annexin V in a cell to determine the number of cells undergoing necrosis, early apoptosis or late apoptosis.

Primary rat neurons = test: Glutamate induced cell death of primary neurons, in vitro ischemia model (MTS assay); format: cell-based; conditions: for rescue of primary neurons from glutamate induced cell death / number of cells surviving glutamate compared with TI-JIP: 250 μM glutamate; for rescue of primary neurons from glutamate induced cell death: live cells assayed 24 hours later, FIG. 19, 20; for number of cells surviving glutamate compared with TI-JIP: versus known c-Jun dimerization inhibitory peptide TI-JIP, FIG. 19
Procedure: Primary neuronal cells were isolated and cultured in the presence of glutamate (250 μM) for […] to induce cell death as a model of ischemia induced cell death.
Primary rat neurons were isolated from embryos (standard protocols), plated in cell culture dishes and maintained for 11 days in culture before experiment. Peptide was added 15 minutes to media before glutamate addition. Glutamate was added to final concentrations of 250 micromolar, for 5 mins at 37 degrees. Glutamate media removed, fresh media added. Assays for live cells done 24 hours later. Live cells were assayed using MTS assay.

c-Jun = biological target: T1, c-Jun (Homo sapiens, UniProt P05412); test: Co-immunoprecipitation of c-Jun with FLAG-tagged peptides from HEK293 cells; format: binding; conditions: anti-FLAG capture, anti-c-Jun detection, FIG. 16
T1 construct: expressed in transfected cells; host or cells: HEK293
Procedure: HEK293 cells were cultured in DMEM+10% FCS, 2 mM L-glutamine. On the day prior to transfection, cells were trypsinised and split into 6-well tissue culture plates so that they reached 80-90% confluency for transfection. Cells were co-transfected with pcDNA3-Jun (1.3 μg) and pcDNA3-peptide (2.6 μg) using Lipofectamine-2000 reagent (Life Technologies, U.S.A.) as per manufacturer's instructions. Forty-eight hours post-transfection, transfected cells were scraped from the plates, collected by centrifugation and proteins extracted in hypotonic lysis buffer (1OmM Tris, 1OmM NaCl, 2 mM EDTA, pH 7.5+protease inhibitors (Roche, U.S.A.)). Salt concentration was adjusted to 15OmM by addition of NaCl, debris pelleted and proteins in supernatant collected in fresh tubes.
A small aliquot (40 μl) of protein was set aside for western analysis. The remainder was incubated by rotation at 4° C. for two hours, with either anti-Flag conjugated agarose beads (Sigma-Aldrich, U.S.A.) anti-Flag antibody (Sigma-Aldrich), preconjugated to anti-mouse magnetic Dynabeads (Dynal Biotech, Norway) according to manufacturer's directions. Protein complexes bound to conjugated beads were collected by centrifugation or over a Dynal magnet, washed eight times for five minutes with NET-2 buffer (50 mM Tris-Cl pH7.5, 150 mM NaCl, 0.05% Nonidet P-40). […]

T1 sequence (P05412 whole entry): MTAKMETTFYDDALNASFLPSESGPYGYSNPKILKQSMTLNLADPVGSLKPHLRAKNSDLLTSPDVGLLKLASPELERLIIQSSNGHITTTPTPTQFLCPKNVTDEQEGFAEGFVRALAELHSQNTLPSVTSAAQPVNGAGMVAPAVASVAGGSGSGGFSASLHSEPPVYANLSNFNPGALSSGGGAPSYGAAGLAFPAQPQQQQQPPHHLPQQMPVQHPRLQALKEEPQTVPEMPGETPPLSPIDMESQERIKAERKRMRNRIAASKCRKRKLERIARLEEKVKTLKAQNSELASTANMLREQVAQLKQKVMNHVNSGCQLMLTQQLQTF

Substance	protection of neurons from glutamate induced cell death [1]	protection offered by the D form relative to the L form of the peptide [1]	rescue of cells from cell death caused by acute ischemia [2]	expression of a reporter gene under control of an AP-I regulatory region (AP-I luciferase reporter)	rescue of primary neurons from glutamate induced cell death (Primary rat neurons)	number of cells surviving glutamate compared with TI-JIP (Primary rat neurons)	also measured
D36: retro-inverted analogue of SEQ ID NO: 136 with C-terminal TAT domain after a single L-glycine; SEQ ID NO: 182 ([dP][dK][dI][dS][dQ][dY]G[dQ][dR][dR][dR]G[dQ][dL]GGRRRQRRKKRG; also: C-terminal TAT domain: chirality not given here) [Peptide D36]	protects a considerable proportion of neurons from glutamate induced cell death	equivalent	a considerable proportion of cells from cell death				
SP36: c-Jun dimerization inhibitory peptide; amino acid SEQ ID NO: 134 with flanking vector sequence, 136 without (GLQGRRRQGYQSIKP)	protects a considerable proportion of neurons from glutamate induced cell death			significantly reducing expression of a reporter gene	capable of rescuing a significant proportion of cells from cell death; also recorded: capable of rescuing almost all cells from cell death; also recorded: dose dependent manner	considerably greater	number of cells undergoing apoptosis after UV B exposure (SIRC cells): capable of reducing the number of cells undergoing apoptosis; cells rescued from glutamate induced cell death (Primary rat neurons; about 5 μM of peptide, FIG. 20): about 100%
SP34: c-Jun dimerization inhibitory peptide; amino acid SEQ ID NO: 126 with flanking vector sequence, 128 without (AYQSINSSPVLPENSQELSLHLKQHVTKS)				significantly reducing expression of a reporter gene			
SP71: c-Jun dimerization inhibitory peptide; amino acid SEQ ID NO: 158 with flanking vector sequence, 160 without (PFFWRLNKIFYFIDSRVAAAILN)				significantly reducing expression of a reporter gene	capable of rescuing a significant proportion of cells from cell death	considerably greater	
SP20: c-Jun dimerization inhibitory peptide; amino acid SEQ ID NO: 94 with flanking vector sequence, 96 without (IYSSILWGTKWCVLLVITP)							binding of c-Jun in co-immunoprecipitation (c-Jun): capable of binding c-Jun to a level detectable in a co-immunoprecipitation
D35: retro-inverted analogue of SEQ ID NO: 132 with C-terminal TAT domain after a single L-glycine; SEQ ID NO: 181 ([dR][dE][dR][dR][dS][dS][dS][dQ][dI]GG[dS][dR][dI][dS][dQ][dY][dA]GRRRQRRKKRG; also: C-terminal TAT domain: chirality not given here) [Peptide D35]	protects a considerable proportion of neurons from glutamate induced cell death	superior	a considerable proportion of cells from cell death				
